From patent US12600709B2, “Nonpeptide somatostatin type 5 receptor agonists and uses thereof” (Crinetics Pharmaceuticals, Inc., priority 2019, dated 2026)
Where two headings read alike, the source gives them in different places.

Target: T1, human somatostatin receptor subtype 5 (Homo sapiens, UniProt P35346)
T1 construct: expressed in transfected cells
Assay: cAMP assay for SST5R (inhibition of cAMP in CHO-K1 cells)
Assay type: cell-based
Conditions: for EC50: inhibition of cAMP via human SST5 receptor, read-out: SST5 potency
Text: General overview: All five SSTR subtypes are Gi coupled G-protein coupled receptors (GPCRs) that lead to decreases in intracellular cyclic AMP (cAMP) when activated by an agonist. Therefore, measurement of intracellular cAMP levels can be used to assess whether compounds of the invention are agonists of SSTR subtypes (John Kelly, Troy Stevens, W. Joseph Thompson, and Roland Seifert, Current Protocols in Pharmacology, 2005, 2.2.1-2.2). One example of an intracellular cAMP assay is described below.
cAMP Assay Protocol for SST5R:
Four days prior to the assay, 2,000 Chinese hamster ovary cells (CHO-K1, ATCC #CCL-61) stably expressing the human somatostatin receptor subtype 5 are plated in each well of a 96-well tissue culture-treated plate in Ham's F12 growth media (ThermoFisher #10-080-CM) supplemented with 10% donor bovine serum (Gemini Bio-Products #100-506), 100 U/mL penicillin; 100 µg/mL streptomycin; 2 mM L-glutamine (Gemini Bio-Products #400-110) and 0.25 mg/mL G418 Sulfate (GoldBio #108321-42-2). The cells are cultured at 37° C., 5% CO2 and 95% humidity. On the day of the assay, the media is aspirated and the cells are treated with 50 μL of 1.6 μM NKH477 (Sigma #N3290) plus various dilutions of compounds of the invention in assay buffer [1× Hank's Balanced Salt Solution (ThermoFisher #SH3058802), 0.5 mM HEPES pH 7.4, 0.1% bovine serum albumin, 0.2 mM 3-Isobutyl-1-methylxanthine (IBMX, VWR #200002-790)]. The cells are incubated for 20 minutes at 37° C. […] The cells are treated with 50 μL of lysis buffer (HRTF cAMP kit, Cisbio) for 30 minutes and then the lysate is diluted to 250 μL with assay buffer. The lysate is transferred to 384-well plates and cAMP detection and visualization antibodies are added and incubated for 1-24 hours at room temperature. The time-resolved fluorescent signal is read with a Tecan M1000Pro multiplate reader. The intracellular cAMP concentrations are calculated by regression to a standard curve and are plotted vs. the concentration of the compounds of the invention and the EC50 of the compounds are calculated using standard methods. All data manipulations are in GraphPad Prism v6 or v7.

T1 sequence (P35346 whole entry): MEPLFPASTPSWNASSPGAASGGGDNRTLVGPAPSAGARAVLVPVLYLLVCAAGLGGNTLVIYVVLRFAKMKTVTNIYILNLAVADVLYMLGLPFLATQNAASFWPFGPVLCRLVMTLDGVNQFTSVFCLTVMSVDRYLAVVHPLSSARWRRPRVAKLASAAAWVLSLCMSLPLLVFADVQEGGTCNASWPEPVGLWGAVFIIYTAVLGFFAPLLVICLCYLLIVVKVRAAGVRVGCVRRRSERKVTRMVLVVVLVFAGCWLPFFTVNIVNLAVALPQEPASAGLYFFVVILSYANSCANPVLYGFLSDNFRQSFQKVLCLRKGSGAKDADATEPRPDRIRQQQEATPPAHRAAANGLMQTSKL

Row | Structure (SMILES) | EC50 (Table A) | EC50 (Table B) | Fold selectivity for SST5 vs SST2 (Table B, class symbols, SST5 receptor over SST2 receptor)
1 | C[C@H](NC(=O)c1cncc(-c2cc(F)cc(OC(F)F)c2)c1N1CC[C@](C)(N)C1)C1CC1 [1-143, 4-[(3S)-3-amino-3-methylpyrrolidin-1-yl]-N-[(1S)-1-cyclopropylethyl]-5-[3-(difluoromethoxy)-5-fluorophenyl]pyridine-3-carboxamide] | < 10 nM | – | –
2 | COc1ncc(C(=O)NC2CCC(F)(F)CC2)c(N2CC[C@](C)(N)C2)c1-c1cc(F)cc(F)c1 [1-144, 4-[(3S)-3-amino-3-methylpyrrolidin-1-yl]-N-(4,4-difluorocyclohexyl)-5-(3,5-difluorophenyl)-6-methoxypyridine-3-carboxamide] | < 10 nM | – | –
3 | COc1ncc(C(=O)N[C@H]2CCC(F)(F)C2)c(N2CC[C@](C)(N)C2)c1-c1cc(F)cc(F)c1 [1-145, 4-[(3S)-3-amino-3-methylpyrrolidin-1-yl]-N-[(1S)-3,3-difluorocyclopentyl]-5-(3,5-difluorophenyl)-6-methoxypyridine-3-carboxamide] | < 10 nM | – | –
4 | Cc1ncc(C(=O)NC2CC(F)(F)C2)c(N2CC[C@](C)(N)C2)c1-c1cc(F)cc(F)c1 [1-146, 4-[(3S)-3-amino-3-methylpyrrolidin-1-yl]-N-(3,3-difluorocyclobutyl)-5-(3,5-difluorophenyl)-6-methylpyridine-3-carboxamide] | < 10 nM | – | –
5 | Cc1ncc(C(=O)N[C@@H](C)C(F)(F)F)c(N2CC[C@](C)(N)C2)c1-c1cc(F)cc(F)c1 [1-147, 4-[(3S)-3-amino-3-methylpyrrolidin-1-yl]-5-(3,5-difluorophenyl)-6-methyl-N-[(2S)-1,1,1-trifluoropropan-2-yl]pyridine-3-carboxamide] | < 10 nM | – | –
6 | Cc1ncc(C(=O)N[C@@H](C)C2CC2)c(N2CC[C@](C)(N)C2)c1-c1cnn(C)c1 [1-148, 4-[(3S)-3-amino-3-methylpyrrolidin-1-yl]-N-[(1S)-1-cyclopropylethyl]-6-methyl-5-(1-methyl-1H-pyrazol-4-yl)pyridine-3-carboxamide] | < 10 nM | – | –
7 | C[C@H](NC(=O)c1cncc(-c2cccc(OC(F)F)c2)c1N1CC[C@](C)(N)C1)C1CC1 [1-149, 4-[(3S)-3-amino-3-methylpyrrolidin-1-yl]-N-[(1S)-1-cyclopropylethyl]-5-[3-(difluoromethoxy)phenyl]pyridine-3-carboxamide] | < 10 nM | – | –
8 | Cc1ncc(C(=O)N[C@@H](C)C2CC2)c(N2CC[C@](C)(N)C2)c1-c1cnn(CC(F)(F)F)c1 [1-155, 4-[(3S)-3-amino-3-methylpyrrolidin-1-yl]-N-[(1S)-1-cyclopropylethyl]-6-methyl-5-[1-(2,2,2-trifluoroethyl)-1H-pyrazol-4-yl]pyridine-3-carboxamide] | > 1000 nM | > 1000 nM | –
9 | Cc1ncc(C(=O)N[C@@H](C)C2CC2)c(N2CC[C@](C)(N)C2)c1-c1cnn(C2CC2)c1 [1-156, 4-[(3S)-3-amino-3-methylpyrrolidin-1-yl]-5-(1-cyclopropyl-1H-pyrazol-4-yl)-N-[(1S)-1-cyclopropylethyl]-6-methylpyridine-3-carboxamide] | 10 to 100 nM | – | –
10 | C[C@H](NC(=O)c1cncc(-c2ccc3c(c2)OC(F)(F)O3)c1N1CC[C@](C)(N)C1)C1CC1 [1-175, 4-[(3S)-3-amino-3-methylpyrrolidin-1-yl]-N-[(1S)-1-cyclopropylethyl]-5-(2,2-difluoro-2H-1,3-benzodioxol-5-yl)pyridine-3-carboxamide] | 10 to 100 nM | – | –
11 | COc1ncc(C(=O)N[C@@H](C)C(F)(F)F)c(N2CC[C@](C)(N)C2)c1-c1cnc(C)nc1 [1-185, 4-[(3S)-3-amino-3-methylpyrrolidin-1-yl]-6-methoxy-5-(2-methylpyrimidin-5-yl)-N-[(2S)-1,1,1-trifluoropropan-2-yl]pyridine-3-carboxamide] | 10 to 100 nM | – | –
12 | C[C@H](NC(=O)c1cnc(OC2CC2)c(-c2cc(F)cc(F)c2)c1N1CC[C@](C)(N)C1)C1CC1 [1-191, 4-[(3S)-3-amino-3-methylpyrrolidin-1-yl]-6-cyclopropoxy-N-[(1S)-1-cyclopropylethyl]-5-(3,5-difluorophenyl)pyridine-3-carboxamide] | < 10 nM | – | –
13 | N[C@H]1CCN(c2c(C(=O)NC3CCC(F)(F)CC3)cnc(OCCC(=O)O)c2-c2cc(F)cc(F)c2)C1 [1-204, 3-({4-[(3S)-3-aminopyrrolidin-1-yl]-5-[(4,4-difluorocyclohexyl)carbamoyl]-3-(3,5-difluorophenyl)pyridin-2-yl}oxy)propanoic acid] | > 1000 nM | – | –
14 | N[C@H]1CCN(c2c(C(=O)NC3CCC(F)(F)CC3)cnc(OCCCC(=O)O)c2-c2cc(F)cc(F)c2)C1 [1-205, 4-({4-[(3S)-3-aminopyrrolidin-1-yl]-5-[(4,4-difluorocyclohexyl)carbamoyl]-3-(3,5-difluorophenyl)pyridin-2-yl}oxy)butanoic acid] | < 10 nM | – | –
15 | C[C@H](NC(=O)c1cnc(C(F)(F)F)c(-c2ccc(F)c(F)c2)c1N1CC[C@](C)(N)C1)C1CC1 [1-209, 4-[(3S)-3-amino-3-methylpyrrolidin-1-yl]-N-[(1S)-1-cyclopropylethyl]-5-(3,4-difluorophenyl)-6-(trifluoromethyl)pyridine-3-carboxamide] | < 10 nM | < 10 nM | +++ (+++=>500)
16 | C[C@]1(N)CCN(c2c(C(=O)NC3CCC(F)(F)CC3)cnc(C(F)(F)F)c2-c2cc(F)cc(F)c2)C1 [1-211, 4-[(3S)-3-amino-3-methylpyrrolidin-1-yl]-N-(4,4-difluorocyclohexyl)-5-(3,5-difluorophenyl)-6-(trifluoromethyl)pyridine-3-carboxamide] | < 10 nM | – | –
17 | CN(CC1CC1)C(=O)c1cnc(C#N)c(-c2cc(F)cc(F)c2)c1N1CC[C@](C)(N)C1 [1-218, 4-[(3S)-3-amino-3-methylpyrrolidin-1-yl]-6-cyano-N-(cyclopropylmethyl)-5-(3,5-difluorophenyl)-N-methylpyridine-3-carboxamide] | 100 to 1000 nM | – | –

Continued, values first:

Row | EC50 (Table A) | EC50 (Table B) | Fold selectivity for SST5 vs SST2 (Table B, class symbols, SST5 receptor over SST2 receptor) | Structure (SMILES)
18 | < 10 nM | – | – | COc1ncc(C(=O)NC2CCC(F)(F)CC2)c(N2CC[C@H](N)C2)c1-c1cc(F)cc(F)c1 [1-150, 4-[(3S)-3-aminopyrrolidin-1-yl]-N-(4,4-difluorocyclohexyl)-5-(3,5-difluorophenyl)-6-methoxypyridine-3-carboxamide]
19 | < 10 nM | – | – | COc1ncc(C(=O)N[C@@H](C)C(F)(F)F)c(N2CC[C@H](N)C2)c1-c1cc(F)cc(F)c1 [1-151, 4-[(3S)-3-aminopyrrolidin-1-yl]-5-(3,5-difluorophenyl)-6-methoxy-N-[(2S)-1,1,1-trifluoropropan-2-yl]pyridine-3-carboxamide]
20 | < 10 nM | – | – | COc1ncc(C(=O)N[C@@H](C)C2CC2)c(N2CC[C@H](N)C2)c1-c1cc(F)cc(F)c1 [1-152, 4-[(3S)-3-aminopyrrolidin-1-yl]-N-[(1S)-1-cyclopropylethyl]-5-(3,5-difluorophenyl)-6-methoxypyridine-3-carboxamide]
21 | < 10 nM | – | – | C[C@H](NC(=O)c1cnc(C(F)(F)F)c(-c2cc(F)cc(F)c2)c1N1CC[C@](C)(N)C1)C1CC1 [1-189, 4-[(3S)-3-amino-3-methylpyrrolidin-1-yl]-N-[(1S)-1-cyclopropylethyl]-5-(3,5-difluorophenyl)-6-(trifluoromethyl)pyridine-3-carboxamide]
22 | < 10 nM | – | – | C[C@H](NC(=O)c1cnc(OCC(F)(F)F)c(-c2cc(F)cc(F)c2)c1N1CC[C@](C)(N)C1)C1CC1 [1-190, 4-[(3S)-3-amino-3-methylpyrrolidin-1-yl]-N-[(1S)-1-cyclopropylethyl]-5-(3,5-difluorophenyl)-6-(2,2,2-trifluoroethoxy)pyridine-3-carboxamide]
23 | 100 to 1000 nM | – | – | COc1ncc(C(=O)NC2CCC(C(F)(F)F)CC2)c(N2CC[C@H](N)C2)c1-c1cc(F)cc(F)c1 (stereo partly drawn) [1-193, 4-[(3S)-3-aminopyrrolidin-1-yl]-5-(3,5-difluorophenyl)-6-methoxy-N-[4-(trifluoromethyl)cyclohexyl]pyridine-3-carboxamide]
24 | < 10 nM | – | – | COc1ncc(C(=O)NC(C2CC2)C(F)(F)F)c(N2CC[C@H](N)C2)c1-c1cc(F)cc(F)c1 (stereo partly drawn) [1-194, 4-[(3S)-3-aminopyrrolidin-1-yl]-N-(1-cyclopropyl-2,2,2-trifluoroethyl)-5-(3,5-difluorophenyl)-6-methoxypyridine-3-carboxamide]
25 | < 10 nM | – | – | N[C@H]1CCN(c2c(C(=O)NC3CCC(F)(F)CC3)cnc(OCC(=O)O)c2-c2cc(F)cc(F)c2)C1 [1-203, 2-({4-[(3S)-3-aminopyrrolidin-1-yl]-5-[(4,4-difluorocyclohexyl)carbamoyl]-3-(3,5-difluorophenyl)pyridin-2-yl}oxy)acetic acid]
